Measured values taken from patent publication US8673366B2, “Chemotherapeutic and prophylactic pharmaceutical compositions” (priority 2004, dated 2014).
Read-outs that look alike come from different tables or passages of the source.

Key:
[1] = tested on: Jurkat; conditions: Example 2, FIG. 3, down to dilution 1:256 (18 and 3.64 μM silver and iron)
Method: (§1) Cells are plated in a 96 well flat bottom tissue culture plates at 10,000 cells/well. Dilutions and controls are added to wells as follows:
(§2) Vero Cells were grown and tested in complete Dulbeco's Modified Eagles Medium (DMEM) supplemented with 15% Fetal Bovine Serum (FBS), Gentamicine 40 μg/ml, Hepes buffer at pH=7.2, L-Glutamine 2 mM and Sodium pyruvate. MCF-7 were grown and tested in complete RPMI-1640 medium supplemented with 10% FBS Gentamicine 40 μg/ml, Hepes buffer at pH=7.2, L-Glutamine 2 mM and Sodium pyruvate. Plates were incubated in CO2 in a humidified incubator at 37° C. for 72 hrs, and then each well was harvested and counted by Trypan Blue dye exclusion method. Numbers of viable cells were counted on a hemacytometer and adjusted for concentration of cells/ml. For comparative purposes, experiments with Cisplatin ([…], MW=300), a well-known chemotherapeutic drug, at 8 and 4 μM were also conducted.
(§3) The methodology was the same as the one employed for Example 1 above.

[2] = tested on: T-47D; conditions: Example 2, FIG. 3, down to dilution 1:256 (18 and 3.64 μM silver and iron)
Method: as §1, §2, §3

[3] = tested on: MCF-7; conditions: for % Inhibition: 72 hrs
Method: as §1, §2, §3

[4] = tested on: BHL-89 (Human B-type EBNA negative lymphoma); conditions: Example 2, FIG. 3, down to dilution 1:256 (18 and 3.64 μM silver and iron)
Method: as §1, §2, §3

[5] = tested on: Vero (Simian Kidney Immortalized Cell Line); experiment: Cytotoxic effect, Trypan Blue viable cell count after 72 hrs; assay type: cell-based
Method: as §1, §2

[6] = tested on: Staphylococcus aureus (S. aureus) ATCC 43300; experiment: MIC macrodilution (NCCLS) serial dilution; assay type: cell-based; design: key to growth in MIC tube: “+” denotes visually detectable growth in MIC tube.; “NG” denotes “no growth” in MIC tube; conditions: for MIC: antibiotics
Method: (§4) Cell suspension concentration was calculated by measuring the optical density (A610) between 0.6 and 0.9.
(§5) To study efficacy, the challenge was done by determining minimum inhibitory concentration or MIC by employing serial dilutions. The minimum inhibitory concentration or MIC is defined as the minimum concentration of antibiotic that will inhibit the growth of the isolated microorganism. In its normal mode of operation, a bacterial inoculum is inoculated into tubes containing culture media and varying concentrations of the antibiotic to be tested. The tubes are incubated to allow bacterial growth. The MIC is read as the lowest concentration of biocide that inhibited bacterial growth. The interpretation of this MIC depends on the organism/biocide pair being tested, and is made following standard guidelines. MIC testing of the present compositions was conducted via a macrodilution procedure using NCCLS (National Committee for Clinical Laboratory Standards) methods for antibiotic susceptibility testing. The biological experiments were conducted by serial dilution with Muller Hinton media of ten tubes where the bacterial concentration was 10 million cells/ml in each. In addition to the “as is” samples (i.e. 100%), ten 1:1 serial dilutions of each sample were tested to determine the MIC for each sample-inoculum combination. The equivalent percentages of the dilutions are: 100, 50, 25, 12.5, 6.25, 3.125, 1.562, 0.781, 0.391, and 0.195%. These tubes were then incubated at 37±2° C. for approximately 24 hours without agitation. The tubes were then observed for presence and level of visible growth.

[7] = tested on: Escherichia coli (E. coli) strain procured from a patient; experiment: MIC macrodilution (NCCLS) serial dilution; assay type: cell-based; design: key to growth in MIC tube: “+” denotes visually detectable growth in MIC tube.; “NG” denotes “no growth” in MIC tube; key to MIC: “NE” denotes not effective; conditions: for MIC: antibiotics
Method: as §4, §5

[8] = S. aureus (ATCC 43300), 100% of initial, approx. 24 hours, 37°C
[9] = 100% of initial, approx. 24 hours, 37°C

O=P1(N(CCCl)CCCl)NCCCO1 (stereo not shown) [cyclophosphamide]
minimum effects: cytotoxic effect (in words) [1] | cytotoxic effect (in words) ([3]; Example 2, FIG. 3, down to dilution 1:256 (18 and 3.64 μM silver and iron))
does not have any effects: cytotoxic effect (in words) [2] | cytotoxic effect (in words) [4]

N.N.[Cl][Pt][Cl] [Cisplatin]
90%: % Inhibition ([3]; 8 μM)
−7%: % Inhibition ([5]; 4 μM, listed as CIS PLA)
72%: % Inhibition ([3]; 4 μM)
no effect: % Inhibition ([5]; 4 μM)
61%: % Inhibition ([5]; 8 μM)

Gentamicin
+: growth in MIC tube ([7]; 0.195% of initial) | growth in MIC tube ([7]; 0.391% of initial) | growth in MIC tube ([7]; 0.781% of initial) | growth in MIC tube ([7]; 1.562% of initial) | growth in MIC tube ([7]; 3.125% of initial) | growth in MIC tube ([7]; 6.25% of initial) | growth in MIC tube ([7]; 12.5% of initial) | growth in MIC tube ([7]; 25% of initial) | growth in MIC tube ([7]; 50% of initial) | growth in MIC tube [7, 9]
NE: MIC [7]
0.391 ppm: MIC ([6]; S. aureus)
NG: growth in MIC tube [6, 8] | growth in MIC tube ([6]; S. aureus, 0.195% of initial) | growth in MIC tube ([6]; S. aureus, 0.391% of initial) | growth in MIC tube ([6]; S. aureus, 0.781% of initial) | growth in MIC tube ([6]; S. aureus, 1.562% of initial) | growth in MIC tube ([6]; S. aureus, 3.125% of initial) | growth in MIC tube ([6]; S. aureus, 6.25% of initial) | growth in MIC tube ([6]; S. aureus, 12.5% of initial) | growth in MIC tube ([6]; S. aureus, 25% of initial) | growth in MIC tube ([6]; S. aureus, 50% of initial)

OO [50 mM H2O2, hydrogen peroxide]
NG: growth in MIC tube ([7]; 25% of initial) | growth in MIC tube ([7]; 50% of initial) | growth in MIC tube [7, 9]
+: growth in MIC tube [6, 8] | growth in MIC tube ([6]; S. aureus, 0.195% of initial) | growth in MIC tube ([6]; S. aureus, 0.391% of initial) | growth in MIC tube ([6]; S. aureus, 0.781% of initial) | growth in MIC tube ([6]; S. aureus, 1.562% of initial) | growth in MIC tube ([6]; S. aureus, 3.125% of initial) | growth in MIC tube ([6]; S. aureus, 6.25% of initial) | growth in MIC tube ([6]; S. aureus, 12.5% of initial) | growth in MIC tube ([6]; S. aureus, 25% of initial) | growth in MIC tube ([6]; S. aureus, 50% of initial) | growth in MIC tube ([7]; 0.195% of initial) | growth in MIC tube ([7]; 0.391% of initial) | growth in MIC tube ([7]; 0.781% of initial) | growth in MIC tube ([7]; 1.562% of initial) | growth in MIC tube ([7]; 3.125% of initial) | growth in MIC tube ([7]; 6.25% of initial) | growth in MIC tube ([7]; 12.5% of initial)

Cc1onc(-c2ccccc2)c1C(=O)N[C@@H]1C(=O)N2[C@@H]1SC(C)(C)[C@@H]2C(=O)O [OXA, Oxacillin]
NG: growth in MIC tube [6, 8] | growth in MIC tube ([6]; S. aureus, 0.781% of initial) | growth in MIC tube ([6]; S. aureus, 1.562% of initial) | growth in MIC tube ([6]; S. aureus, 3.125% of initial) | growth in MIC tube ([6]; S. aureus, 6.25% of initial) | growth in MIC tube ([6]; S. aureus, 12.5% of initial) | growth in MIC tube ([6]; S. aureus, 25% of initial) | growth in MIC tube ([6]; S. aureus, 50% of initial)
1.56 µg/mL: MIC ([6]; Staphylococcus aureus, ATCC43300, S. aureus, read-out: MIC)
+: growth in MIC tube ([6]; S. aureus, 0.195% of initial) | growth in MIC tube ([6]; S. aureus, 0.391% of initial) | growth in MIC tube ([7]; 0.195% of initial) | growth in MIC tube ([7]; 0.391% of initial) | growth in MIC tube ([7]; 0.781% of initial) | growth in MIC tube ([7]; 1.562% of initial) | growth in MIC tube ([7]; 3.125% of initial) | growth in MIC tube ([7]; 6.25% of initial) | growth in MIC tube ([7]; 12.5% of initial) | growth in MIC tube ([7]; 25% of initial) | growth in MIC tube ([7]; 50% of initial) | growth in MIC tube [7, 9]
NE: MIC [7]
